Assay results from ChEMBL document CHEMBL1201862, “PubChem BioAssay data set” (2004).
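Values below derive from 48-hour exposures of cells grown in 96-well plates, with endpoints linearly interpolated between the two concentrations bracketing the appropriate inhibition level. GI50 is the concentration that inhibits growth by half.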 Calls of active or inactive are those of the source. No stated cut-off is given here; in the data, active = GI50 up to about 1.1 µM and inactive = higher. Where a SMILES comes first, the peptide text is derived from it. The star is where a group is joined. Boc = CC(C)(C)OC(=O)*; OBn = c1ccc(CO*)cc1

Legend:
Assay in all cases: NCI tumour cell line growth inhibition, 48 h
A498 = test system: A498
A549 = test system: A549
COLO 205 = test system: COLO 205
EKVX = test system: EKVX
HCT-15 = test system: HCT-15
Hs-578T = test system: Hs-578T
MDA-MB-231 = test system: MDA-MB-231
NCI-H460 = test system: NCI-H460
NCI/ADR-RES = test system: NCI/ADR-RES
OVCAR-5 = test system: OVCAR-5
OVCAR-8 = test system: OVCAR-8
RPMI-8226 = test system: RPMI-8226
SF-268 = test system: SF-268
SF-539 = test system: SF-539
SK-MEL-28 = test system: SK-MEL-28
SNB-75 = test system: SNB-75
TK-10 = test system: TK-10
UACC-257 = test system: UACC-257
UO-31 = test system: UO-31

| SMILES | GI50 (A498) | GI50 (A549) | GI50 (COLO 205) | GI50 (EKVX) | GI50 (HCT-15) | GI50 (Hs-578T) | GI50 (MDA-MB-231) | GI50 (NCI-H460) | GI50 (NCI/ADR-RES) | GI50 (OVCAR-5) | GI50 (OVCAR-8) | GI50 (RPMI-8226) | GI50 (SF-268) | GI50 (SF-539) | GI50 (SK-MEL-28) | GI50 (SNB-75) | GI50 (TK-10) | GI50 (UACC-257) | GI50 (UO-31) |
| --- | --- | --- | --- | --- | --- | --- | --- | --- | --- | --- | --- | --- | --- | --- | --- | --- | --- | --- | --- |
| Cc1ccc(S(=O)(=O)NCc2cccc([N+](=O)[O-])c2)cc1 | > 100 µM (inactive) | > 100 µM (inactive) | > 100 µM (inactive) | > 100 µM (inactive) | > 100 µM | > 100 µM (inactive) | > 100 µM (inactive) | > 100 µM (inactive) | > 100 µM (inactive) | > 100 µM (inactive) | > 100 µM (inactive) | > 100 µM (inactive) | > 100 µM (inactive) | > 100 µM (inactive) | > 100 µM (inactive) | > 100 µM (inactive) | > 100 µM (inactive) | 75.9 µM (inactive) | – |
| O=c1[nH]c(=O)n(C2OC(CO)C(O)C2O)c2ncc(-c3ccc(-c4ccccc4)cc3)nc12 (stereo not drawn) | > 20 µM (inactive) | > 20 µM (inactive) | > 20 µM (inactive) | > 20 µM (inactive) | > 20 µM | > 20 µM (inactive) | > 20 µM (inactive) | > 20 µM (inactive) | > 20 µM (inactive) | > 20 µM (inactive) | > 20 µM (inactive) | > 20 µM (inactive) | > 20 µM (inactive) | > 20 µM (inactive) | – | > 20 µM (inactive) | > 20 µM (inactive) | > 20 µM (inactive) | > 20 µM (inactive) |
| COc1cc(S(=O)(=O)Nc2nc(-c3ccc(/N=C/c4ccccc4O)cc3)cs2)ccc1Cl | 41.7 µM (inactive) | 41.3 µM (inactive) | 25.7 µM (inactive) | 23.4 µM (inactive) | 31.6 µM | 38.2 µM (inactive) | 36.5 µM (inactive) | 35.3 µM (inactive) | 50.5 µM (inactive) | > 100 µM (inactive) | 38.5 µM (inactive) | – | 32 µM (inactive) | 39.4 µM (inactive) | 65.2 µM (inactive) | 51.1 µM (inactive) | 74.3 µM (inactive) | 35.9 µM (inactive) | 44.2 µM (inactive) |
| CCOc1ccc(NC(=O)/C(=N\N)C(C(=O)OC)c2nc3ccc(Cl)cc3nc2O)cc1 (stereo not drawn) | > 100 µM (inactive) | > 100 µM (inactive) | – | 33 µM (inactive) | > 100 µM | > 100 µM (inactive) | > 100 µM (inactive) | > 100 µM (inactive) | > 100 µM (inactive) | > 100 µM (inactive) | > 100 µM (inactive) | > 100 µM (inactive) | > 100 µM (inactive) | > 100 µM (inactive) | > 100 µM (inactive) | > 100 µM (inactive) | > 100 µM (inactive) | > 100 µM (inactive) | 72.3 µM (inactive) |
| COP(=O)(OC)/C(=C/c1cn(C(c2ccccc2)(c2ccccc2)c2ccccc2)cn1)NC=O | 16.6 µM (inactive) | 23.4 µM (inactive) | 15.4 µM (inactive) | 22 µM (inactive) | 25.6 µM | 16 µM (inactive) | 16.2 µM (inactive) | 16.4 µM (inactive) | 17.3 µM (inactive) | 20.6 µM (inactive) | 21.7 µM (inactive) | 32 µM (inactive) | 14.5 µM (inactive) | 14.4 µM (inactive) | 33.4 µM (inactive) | 5.92 µM (inactive) | 22.5 µM (inactive) | – | 12.9 µM (inactive) |
| CC(C)(C)c1ccc(-n2c3nc(=O)n(-c4ccccc4C(F)(F)F)c(=O)c-3cc3ccccc32)cc1 | 31.3 µM (inactive) | 29 µM (inactive) | 19.1 µM (inactive) | 18.6 µM (inactive) | 12.3 µM | 21.9 µM (inactive) | 23.8 µM (inactive) | 4.25 µM (inactive) | 23.4 µM (inactive) | 20.2 µM (inactive) | 19.6 µM (inactive) | – | 30.5 µM (inactive) | 23.8 µM (inactive) | 8.26 µM (inactive) | 15.6 µM (inactive) | 51.9 µM (inactive) | 19.6 µM (inactive) | 20.7 µM (inactive) |
| C[C@@H](NC(=O)c1ccc(CNC(=O)/C=C/c2cccc(Oc3ccccc3)c2)cc1)c1ccccc1 | 31 µM (inactive) | 14 µM (inactive) | > 100 µM (inactive) | 21.8 µM (inactive) | > 100 µM | 7.33 µM (inactive) | > 100 µM (inactive) | 34.7 µM (inactive) | > 100 µM (inactive) | 78.9 µM (inactive) | 32.9 µM (inactive) | > 100 µM (inactive) | 20.8 µM (inactive) | 12.2 µM (inactive) | > 100 µM (inactive) | 6.18 µM (inactive) | 24.9 µM (inactive) | 55.7 µM (inactive) | 10.7 µM (inactive) |
| CC(=O)CC(OC(C)=O)C1=CCC2C(CC1C)OC(=O)C2C (stereo not drawn) | > 100 µM (inactive) | > 100 µM (inactive) | > 100 µM (inactive) | > 100 µM (inactive) | > 100 µM | > 100 µM (inactive) | > 100 µM (inactive) | > 100 µM (inactive) | > 100 µM (inactive) | > 100 µM (inactive) | > 100 µM (inactive) | > 100 µM (inactive) | > 100 µM (inactive) | > 100 µM (inactive) | > 100 µM (inactive) | > 100 µM (inactive) | > 100 µM (inactive) | > 100 µM (inactive) | – |
| CC(=O)OCC1OC(n2c3c(c(-c4ccc(Cl)cc4)c(C#N)c2=S)C(=O)CC(C)(C)C3)C(OC(C)=O)C(OC(C)=O)C1OC(C)=O (stereo not drawn) | 30.3 µM (inactive) | 38 µM (inactive) | 25 µM (inactive) | – | 14.2 µM | 20.7 µM (inactive) | 15.2 µM (inactive) | 33.7 µM (inactive) | 12 µM (inactive) | 35.8 µM (inactive) | 9.55 µM (inactive) | 4.59 µM (inactive) | 12.1 µM (inactive) | 21.1 µM (inactive) | 23.6 µM (inactive) | 11.4 µM (inactive) | > 100 µM (inactive) | 15.2 µM (inactive) | 39.2 µM (inactive) |
| COc1ccc2c(c1)O[C@@H]1C(O)Oc3cc(OC)c(OC)cc3[C@]1(O)C2=O (stereo partly drawn) | 82.6 µM (inactive) | 9.1 µM (inactive) | 95.1 µM (inactive) | 45.9 µM (inactive) | > 100 µM | 20.2 µM (inactive) | 72.3 µM (inactive) | 69 µM (inactive) | 30.4 µM (inactive) | > 100 µM (inactive) | 94.6 µM (inactive) | 44.8 µM (inactive) | 34.3 µM (inactive) | > 100 µM (inactive) | > 100 µM (inactive) | > 100 µM (inactive) | > 100 µM (inactive) | 29 µM (inactive) | – |
| COC(=O)C(Cc1ccccc1)NP(=O)(O)OCC1OC(n2cc(I)c(=O)[nH]c2=O)CC1O (stereo not drawn) | > 100 µM (inactive) | > 100 µM (inactive) | > 100 µM (inactive) | > 100 µM (inactive) | > 100 µM | > 100 µM (inactive) | > 100 µM (inactive) | > 100 µM (inactive) | > 100 µM (inactive) | – | > 100 µM (inactive) | > 100 µM (inactive) | > 100 µM (inactive) | > 100 µM (inactive) | > 100 µM (inactive) | > 100 µM (inactive) | > 100 µM (inactive) | > 100 µM (inactive) | > 100 µM (inactive) |
| O=C1Nc2cccc(Cl)c2/C1=C\c1c(Cl)nc2n1CCS2 | > 100 µM (inactive) | > 100 µM (inactive) | > 100 µM (inactive) | 84.7 µM (inactive) | 96.6 µM | > 100 µM (inactive) | > 100 µM (inactive) | > 100 µM (inactive) | > 100 µM (inactive) | > 100 µM (inactive) | > 100 µM (inactive) | > 100 µM (inactive) | > 100 µM (inactive) | 89.1 µM (inactive) | > 100 µM (inactive) | > 100 µM (inactive) | 60.7 µM (inactive) | > 100 µM (inactive) | > 100 µM (inactive) |
| COc1cccc2c1C(=O)c1c(O)c3c(c(O)c1C2=O)C[C@H](O)C[C@@H]3OC1CC(N)C(O)C(C)O1 (stereo partly drawn) | < 0.01 µM (active) | 1.98 µM (inactive) | 0.508 µM (active) | 5.21 µM (inactive) | 11.5 µM | 0.802 µM (active) | 1.78 µM (inactive) | < 0.01 µM (active) | 13.4 µM (inactive) | 1.97 µM (inactive) | 1.05 µM (active) | 1.22 µM (inactive) | 1.57 µM (inactive) | 1.33 µM (inactive) | 1.7 µM (inactive) | 1.87 µM (inactive) | 1.49 µM (inactive) | 1.58 µM (inactive) | 2.24 µM (inactive) |
| O=C1CCc2ccc(O)c(c2)Oc2ccc(cc2)C(Sc2ccccc2)CCO1 (stereo not drawn) | 17.4 µM (inactive) | 18.6 µM (inactive) | 17.3 µM (inactive) | 12.5 µM (inactive) | 13.7 µM | 14.7 µM (inactive) | 3.85 µM (inactive) | – | 14.1 µM (inactive) | 17.1 µM (inactive) | 18.1 µM (inactive) | 13.5 µM (inactive) | 15.7 µM (inactive) | 15.8 µM (inactive) | 15.4 µM (inactive) | 6.49 µM (inactive) | 16 µM (inactive) | 16 µM (inactive) | 14.4 µM (inactive) |
| CC(C)CC(NC(=O)C(Cc1ccccc1)NC(=O)C(Cc1ccccc1)NC(=O)OC(C)(C)C)C(=O)OCc1ccccc1 (stereo not drawn) (Boc-Phe-Phe-Leu-OBn; configuration not given here) | > 100 µM (inactive) | > 100 µM (inactive) | > 100 µM (inactive) | > 100 µM (inactive) | > 100 µM | > 100 µM (inactive) | > 100 µM (inactive) | – | > 100 µM (inactive) | > 100 µM (inactive) | > 100 µM (inactive) | > 100 µM (inactive) | > 100 µM (inactive) | > 100 µM (inactive) | > 100 µM (inactive) | > 100 µM (inactive) | > 100 µM (inactive) | > 100 µM (inactive) | > 100 µM (inactive) |
